The values that follow come from patent publication US10899700B2, “Process for the separation of long chain amino acids and dibasic acids” (Vitaworks IP, LLC, priority 2017, dated 2021).

Series [1] can be described thus: Solubility of alkali salts in sodium hydroxide solution (FIG. 6, FIG. 7). The class given is physicochemical. Conditions: 2 M sodium hydroxide, about 50° C. The method, then:
FIG. 6. Solubility curve of 11-aminoundecanoic acid in water at neutral pH, 1 M solution of sulfuric acid, and 2 M solution of sodium hydroxide.
FIG. 7. Solubility curve of heptanoic acid in a 6 M solution of sodium hydroxide and dodecanedioic acid in a 3 M solution of sodium hydroxide.
When the hydrolysis reaction of mixed amide derivatives from the Beckmann rearrangement is performed in the presence of alkali hydroxide, main products other than alkylamine are obtained in the form of their alkali salts. It was observed that a starting suspension of the mixed amide derivatives in a solution of alkali hydroxide is changed to a clear solution at a temperature of 60° C. or above after the hydrolysis.
Since long chain amino acid, e.g., 11-aminoundecanoic acid, has relatively constant solubility, evaporative concentration of the mother liquor will result in the crystallization of inorganic salt, in particular, sodium sulfate, along with valuable long chain amino acid. […] This finding greatly facilitates the separation of inorganic salt, most preferably, sodium sulfate, and the recovery of long chain amino acids.
In an alkali hydroxide hydrolysis of the mixed amide derivatives, two mole equivalents of alkali hydroxide are required, but more than two equivalents, usually between 2.5 to 3 equivalents of alkali hydroxide are used to achieve a complete hydrolysis. […]

The nature of series [2]: Solubility of sodium salts in water, ethanol and aqueous ethanol (FIG. 8). The class given is physicochemical. The following applies: for solubility change of the sodium salt in aqueous ethanol (in words): aqueous ethanol versus water or ethanol; for solubility of the sodium salt in water and in ethanol (in words): both water and ethanol. The source says:
FIG. 8. Solubility of 11-aminoundecanoic acid and dodecanedioic acid in aqueous ethanol solution of 2 M sodium hydroxide at different concentration of ethanol.
For example, FIG. 8 illustrates the solubility change of sodium salts of 11-aminoundecanoic acid and dodecanedioic acid in aqueous ethanol. […] This surprising finding renders the separation of these two salts possible.

Series [3] can be described thus: physchem. The following applies: aqueous buffer.
Series [4] in a line: Phase separation of hexylamine-water azeotrope distillate upon cooling. In kind it is physicochemical. Conditions: aqueous phase after cooling and phase separation. The text has this: For the production of 11-aminoundecanoic acid and dodecanedioic acid, hexylamine is one of the main products. Hexylamine is found to form an azeotrope with water and can be separated from the solution by azeotropic distillation. Upon cooling, the distillate separates into an upper phase of nearly pure hexylamine and an aqueous phase containing not more than 2% of hexylamine. Hexylamine can also be separated from the mixture by steam distillation or steam stripping. Complete separation is accomplished when the distillate at the overhead becomes nearly neutral at a pH of 7-8.

Usually solubility stands for how much of the substance goes into solution per volume. Low readings indicate a poorly soluble substance, high ones a readily soluble substance.

Turning to `NCCCCCCCCCCC(=O)O` [11-aminoundecanoic acid], in series [1], the “solubility of the alkali salt in 2 M solution of sodium hydroxide (in words)” value is given as “freely soluble”. Besides, in series [2], the “solubility change of the sodium salt in aqueous ethanol (in words)” value was “drastically increases the solubility”; the “solubility of the sodium salt in water and in ethanol (in words)” value is reported as “nearly insoluble”.

On to `O=C(O)CCCCCCCC(=O)O` [azelaic acid], for which, in series [3], the solubility was above 600 mg/mL.

For `O=C(O)CCCCCCCCCCC(=O)O` [dodecanedioic acid], in series [2], the “solubility change of the sodium salt in aqueous ethanol (in words)” value was “remains unchanged”; the “solubility of the sodium salt in water and in ethanol (in words)” value is “nearly insoluble”.

Consider `CCCCCCN` [hexylamine], for which the “hexylamine content of the aqueous phase of the cooled azeotropic distillate” value in series [4] is reported as “not more than 2%”.
